The test system of one test is PARP. As to the kind of experiment: PARP protein expression in breast cancer cell lines (Western blot). In kind it is cell-based, human. The protocol:
Human breast cancer cell lines (MCF-7 and MDA-MB-231) were cultured by the same method as that of Example 2-1 except that they were treated with 0 mM, 2.5 mM, or 5.0 mM calcium lactate, and the cultured cancer cells were obtained. Then, changes in expression level depending on the concentration of calcium lactate was analyzed at the protein expression levels of PARP included therein (FIG. 8). In this case, the change in expression level was analyzed through a Western blot using the Image-J program with anti-PARP antibody as a primary antibody and anti-rabbit IgG conjugate as a secondary antibody, and GAPDH was used as internal control groups.
In general terms: Immunoblotting shows a protein as a band on a membrane.

For a further test, the system named is β-catenin. Description: β-catenin mRNA (RT-PCR) and protein (Western blot) expression in colorectal cancer cell lines. In kind it is cell-based, human. As to conditions: HCT-116, HT-29, DLD-1. The protocol:
Human colorectal cancer cell lines (HCT-116, HT-29, and DLD-1) were cultured by the same method as that of Example 2-1 except that they were treated with 0 mM, 1.5 mM, or 2.5 mM calcium lactate, and the cultured cancer cells were obtained. Then, expression levels of […] depending on the concentration of calcium lactate were compared at the expression levels of mRNA and protein included therein.
Firstly, in order to compare mRNA expression levels, the total RNA was extracted from each of the cancer cells using an RNeasy mini kit and cDNA was synthesized using a reverse transcriptase. The gene of β-catenin was obtained through reverse transcriptase PCR using the synthesized cDNA as a template and the primers described below.
Then, in order to compare protein expression levels, each of the cancer cells was disrupted and electrophoresis was performed thereto. Then, a Western blot using anti-β-catenin antibody as a primary antibody and an anti-rabbit IgG conjugate as a secondary antibody was conducted (lower part of FIG. 5) and the blots were analyzed with the Image-J program. In this case, actin was used as internal control groups.

In test [1] the test system is colorectal cancer cell (HT-29). As to the kind of experiment: Tumor volume and morphology in HT-29 implanted animal model. The test is classed as in vivo, Balb/c mice. The protocol: A colorectal cancer cell (HT-29) cultured in an RPMI1640 medium and then diluted with PBS was subcutaneously implanted into the flank of Balb/c mice. The mice were bred until the colorectal cancer cell grew to about 5 mm. Then, four groups were set up; a control group untreated with calcium lactate for 30 days, an experimental group 1 (peroral, P.O.) administered with 2.5 mM calcium lactate by oral administration, an experimental group 2 (intra tumor, I.T) injected with 2.5 mM calcium lactate around tumor, and an experimental group 3 (subcutaneous, S.C) subcutaneously injected with 25 mM calcium lactate (FIG. 27).
The volumes of colorectal cancer tissues extracted from the mice of the control group or the experimental group 1 set up in Example 10-1 were measured over time and compared with each other (FIG. 30).
The volumes of colorectal cancer tissues extracted from the mice of the control group or the experimental group 2 set up in Example 10-1 were measured over time and compared with each other (FIG. 32).
The tumor morphologies of the mice of the control group or the experimental group 2 set up in Example 10-1 were compared with each other (FIG. 33).
The volumes of colorectal cancer tissues extracted from the mice of the control group or the experimental group 3 set up in Example 10-1 were measured over time and compared with each other (FIG. 34).
The tumor morphologies of the mice of the control group or the experimental group 3 set up in Example 10-1 were compared with each other (FIG. 35).

Test [2] concerns PDH (pyruvate dehydrogenase). Description: PDH protein expression (immunofluorescence). The test is classed as cell-based, human. As to conditions: HCT-116 and HT-29; 2.5 mM, 24 hours. The protocol: After the same method as that of Example 6-1 except that an anti-rabbit PDH antibody was used instead of the anti-rabbit LDHB antibody was performed, protein expression levels of PDH in human colorectal cancer cell lines (HCT-116 and HT-29) treated with calcium lactate were measured (FIG. 13).

Test [3] deals with VEGF (vascular endothelial growth factor). Description: VEGF mRNA and protein expression. The test is classed as cell-based, human. As to conditions: HCT-116 and HT-29; 2.5 mM, 24 hours, hypoxia condition. The protocol: Human colorectal cancer cell lines (HCT-116 and HT-29) were treated with 2.5 mM calcium lactate under hypoxia condition and cultured for 24 hours. Then, mRNA expression levels and protein expression levels of VEGF in each of the cultured cancer cell lines were analyzed (FIGS. 16a and 16b). In this case, human colorectal cancer cell lines cultured without treating with calcium lactate under normoxia or hypoxia condition were used as control groups.

Test [4] concerns human colorectal cancer cell lines (HCT-116, HT-29, and DLD-1). Description: Viability of colorectal cancer cell lines in plate with low adhesivity. To be noted: HCT-116, HT-29, DLD-1, 1.5 or 2.5 mM (untreated about 5%). The test is classed as cell-based. The protocol:
Human colorectal cancer cell lines (HCT-116, HT-29, and DLD-1) were inoculated into a 6-well plate with low adhesivity and then cultured treating with various concentrations (0 mM, 1.5 mM, or 2.5 mM) of calcium lactate. Then, survival rates of the cells were compared (FIG. 26).

Test [5] concerns human vascular endothelial cell (HUVEC). Description: Tube formation of HUVEC in culture supernatants of treated cancer cell lines. In kind it is cell-based. The source says:
A human vascular endothelial cell (HUVEC) was inoculated into each of the obtained culture supernatant and cultured to analyze a conformational change of cells (FIG. 17). In this case, an HUVEC cultured using the culture medium of a cancer cell line cultured without treating with calcium lactate was used as a control group, and an HUVEC cultured with the treatment with Sulforaphane, which is a growth inhibitor of an HUVEC, was used as a comparison group.

In the case of `CC(O)C(=O)[O-].CC(O)C(=O)[O-].[Ca+2]` (stereo not drawn) [calcium lactate], the “protein expression levels of PARP” value in the test on PARP (MCF-7 and MDA-MB-231, with increasing concentration (0, 2.5, 5.0 mM)) is “decreased”. The “protein expression levels of the truncated PARP” value with PARP (MCF-7 cell line, 0, 2.5, 5.0 mM) was “increased”. For the same compound, the “mRNA expression levels of β-catenin” value with β-catenin (0, 1.5, 2.5 mM) is recorded as “no difference”. In the test on β-catenin (with increasing concentration (0, 1.5, 2.5 mM)), the “protein expression levels of β-catenin” value is listed as “decreased”. Further, the tumor morphology entry in test [1] (2.5 mM injected around tumor) was “decreased in size with decreased angiogenesis”; in test [1] (25 mM subcutaneously injected) it was “greatly decreased in size and angiogenesis is also reduced”. Further, in test [1] (25 mM subcutaneously injected, 30 days (control about 2300)), the final tumor volume result was “about 80 mm^3”. In addition, the “protein expression levels of PDH” value in test [2] is “sharply increased”. Moreover, the “VEGF level (mRNA and protein)” value in test [3] is on record as “decreased”. Further, the cell apoptosis rate result in test [4] is listed as “about 90%”. Also, the “tube-forming ability of HUVEC” value in test [5] (culture supernatant of cancer cell line treated with 2.5 mM) is reported as “reduced tube-forming ability similar to the comparison group treated with Sulforaphane”; in test [5] (culture supernatants of cancer cell lines treated with 0.5, 1, 1.5, 2.5 mM for 24 hours, vs control) it was “reduced tube-forming ability”.

Source of the values: patent publication US11413261B2, “Pharmaceutical composition for treating cancer comprising lactate metal salt” (METIMEDI PHARMACEUTICALS CO., LTD, priority 2014, dated 2022).
